Assay results as given in ChEMBL document CHEMBL4118217, “Pyrrolinone derivatives as a new class of P2X3 receptor antagonists. Part 1: Initial structure-activity relationship studies of a hit from a high throughput screening” (Bioorg Med Chem Lett, 2018).

What was measured:
[1] = target: T1, P2X purinoceptor 3 (Homo sapiens, UniProt P56373)
T1 sequence (P56373 whole entry): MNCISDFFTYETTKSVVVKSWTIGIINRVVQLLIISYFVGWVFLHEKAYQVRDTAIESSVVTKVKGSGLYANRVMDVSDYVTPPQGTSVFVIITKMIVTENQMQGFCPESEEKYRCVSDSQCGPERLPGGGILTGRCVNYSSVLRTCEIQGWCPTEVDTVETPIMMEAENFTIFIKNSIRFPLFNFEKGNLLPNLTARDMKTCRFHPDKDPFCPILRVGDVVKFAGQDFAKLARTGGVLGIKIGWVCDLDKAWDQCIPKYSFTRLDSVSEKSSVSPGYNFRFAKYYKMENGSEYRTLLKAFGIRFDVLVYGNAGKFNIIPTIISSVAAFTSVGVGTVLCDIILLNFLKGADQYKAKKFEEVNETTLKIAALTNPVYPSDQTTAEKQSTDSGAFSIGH

[2] = Half life in rat at 0.5 mg/kg, iv or 1 mg/kg, po; assay type: ADME, organism-based; conditions: in vivo
[3] = Oral bioavailability in rat at 1 mg/kg; assay type: ADME, organism-based; conditions: in vivo
[4] = test system: Mus musculus; assay: Analgesic activity in iv dosed mouse assessed as inhibition of acetic acid-induced writhes; assay type: functional
[5] = in vivo; conditions: rat, iv, 0.5 mg/kg

SMILES | IC50 [1] | other results
CCOC(=O)c1ccc(N2C(=O)C(O)=C(C(=O)c3ccc(OC)cc3)C2C2CCCCC2)cc1 (stereo unspecified) | 10 nM | 
CCOC(=O)c1ccc(N2C(=O)C(O)=C(C(=O)Nc3ccc(OC)cc3)C2c2ccccc2)cc1 (stereo unspecified) | 3930 nM | 
CCOC(=O)c1ccc(N2C(=O)C(O)=C(c3ccc(OC)cc3)C2c2ccccc2)cc1 (stereo unspecified) | > 10000 nM | 
COc1ccc(C(=O)C2=C(O)C(=O)N(c3ccc(CO)cc3)C2c2ccccc2)cc1 (stereo unspecified) | > 10000 nM | 
CCOC(=O)c1ccc(N2C(=O)C(O)=C(C(=O)c3ccccc3)C2c2ccccc2)cc1 (stereo unspecified) | 370 nM | 
CCOC(=O)c1ccc(N2CC(C(=O)c3ccc(OC)cc3)=C(O)C2=O)cc1 | > 10000 nM | 
COc1ccc(C(=O)C2=C(O)C(=O)N(c3ccc(-c4ccon4)cc3)C2C2CCCCC2)cc1 (stereo unspecified) [listing 1 of 2 here] |  | half-life [2]: 1.3 h; bioavailability [3]: 10.2%
COc1ccc(C(=O)C2=C(O)C(=O)N(c3ccccc3)C2c2ccccc2)cc1 (stereo unspecified) | > 10000 nM | 
CCOC(=O)c1ccc(N2C(=O)C(NO)=C(C(=O)c3ccc(OC)cc3)C2c2ccccc2)cc1 (stereo unspecified) | 4240 nM | 
COc1ccc(C(=O)C2=C(O)C(=O)N(c3ccc(-c4ccon4)cc3)C2C2CCCCC2)cc1 (stereo unspecified) [listing 2 of 2 here] |  | inhibition [4]: Dose-dependent effect
CCOC(=O)c1ccc(N2C(=O)C(O)=C(C(=O)c3ccc(OC)cc3)C2c2ccc(F)cc2)cc1 (stereo unspecified) | 20 nM | half-life [2]: 0.1 h; clearance [5]: 37 mL/min/kg
CCOC(=O)c1ccc(N2C(=O)C=C(C(=O)c3ccc(OC)cc3)C2c2ccccc2)cc1 (stereo unspecified) | > 10000 nM | 
CCOC(=O)c1ccc(N2C(=O)C(O)=C(C(C)=O)C2c2ccccc2)cc1 (stereo unspecified) | 4790 nM | 
COc1ccc(C(=O)C2=C(O)C(=O)N(c3ccc(C(C)=O)cc3)C2c2ccccc2)cc1 (stereo unspecified) | 3280 nM | 
COc1ccc(C(=O)C2=C(O)C(=O)N(c3ccc(-c4noc(C)n4)cc3)C2c2ccccc2)cc1 (stereo unspecified) | 100 nM | 
CCOC(=O)c1ccc(N2C(=O)C(O)=C(C(=O)c3ccc(OC)cc3)C2c2ccccc2F)cc1 (stereo unspecified) | 130 nM | 

SMILES | IC50 [1] | other results
COc1ccc(C(=O)C2=C(O)C(=O)N(c3ccc(-c4noc(C)n4)cc3)C2C2CCCCC2)cc1 (stereo unspecified) | 19 nM | half-life [2]: 0.8 h; clearance [5]: 5 mL/min/kg; bioavailability [3]: 7.1%
CCOC(=O)c1ccc(N2C(=O)C(O)=C(Cc3ccc(OC)cc3)C2c2ccccc2)cc1 (stereo unspecified) | > 10000 nM | 
COc1ccc(C(=O)C2=C(O)C(=O)N(c3ccc(-c4nc(C)no4)cc3)C2C2CCCCC2)cc1 (stereo unspecified) |  | half-life [2]: 1 h; clearance [5]: 3.4 mL/min/kg; bioavailability [3]: 13.5%
CCOC(=O)c1ccc(N2C(=O)C(O)=C(NC(=O)c3ccc(OC)cc3)C2c2ccccc2)cc1 (stereo unspecified) | 1370 nM | 
COc1ccc(C(=O)C2=C(O)C(=O)N(c3ccc(-c4nnc(C)o4)cc3)C2C2CCCCC2)cc1 (stereo unspecified) | 72 nM | half-life [2]: 1.7 h; clearance [5]: 5.5 mL/min/kg; bioavailability [3]: 2.9%
COc1ccc(C(=O)C2=C(O)C(=O)N(c3ccc(C(=O)O)cc3)C2c2ccccc2)cc1 (stereo unspecified) | > 10000 nM | 
CCOC(=O)c1ccc(N2C(=O)C(O)=C(/C(=N/O)c3ccc(OC)cc3)C2c2ccccc2)cc1 (stereo unspecified) | 560 nM | 
CCOC(=O)c1ccc(N2C(=O)C(O)=C(C(=O)c3ccc(OC)cc3)C2c2cccc(F)c2)cc1 (stereo unspecified) | 30 nM | 
CCOC(=O)c1ccc(N2C(=O)C(O)=C(C(=O)c3ccc(OC)cc3)C2c2ccccc2)cc1 (stereo unspecified) | 20 nM | 
COc1ccc(C(=O)C2=C(O)C(=O)N(c3ccc(C(F)(F)F)cc3)C2c2ccc(F)cc2)cc1 (stereo unspecified) | 360 nM | 
COc1ccc(C(=O)C2=C(O)C(=O)N(c3ccc(-c4cc(C)no4)cc3)C2C2CCCCC2)cc1 (stereo unspecified) | 9 nM | half-life [2]: 1.1 h; clearance [5]: 6.2 mL/min/kg; bioavailability [3]: 0.5%
CCOC(=O)c1ccc(N2C(=O)C(O)=C(C(=O)c3ccc(OC)cc3)C2c2ccc(Cl)cc2)cc1 (stereo unspecified) | 130 nM | 
CCOC(=O)c1ccc(N2C(=O)C(O)=C(C(=O)c3ccc(OC)cc3)C2c2ccccc2Cl)cc1 (stereo unspecified) | 90 nM | 
COc1ccc(C(=O)C2=C([O-])C(=O)N(c3ccc(-c4ccon4)cc3)C2C2CCCCC2)cc1.[Na+] (stereo unspecified) |  | ED50 [4]: 2.6 mg/kg
CCOC(=O)c1ccc(N2C(=O)C(OC)=C(C(=O)c3ccc(OC)cc3)C2c2ccccc2)cc1 (stereo unspecified) | 9800 nM | 
COc1ccc(C(=O)C2=C(O)C(=O)N(c3ccc(-c4ncco4)cc3)C2C2CCCCC2)cc1 (stereo unspecified) | 135 nM | 
